How the values were obtained:
MERS-CoV 3CLpro = MERS-CoV 3CLpro (Middle East respiratory syndrome-related coronavirus, UniProt K9N7C7); experiment: biochemical
SARS-CoV-2 3CLpro = SARS-CoV-2 3CLpro (Severe acute respiratory syndrome coronavirus 2, UniProt P0DTD1); experiment: biochemical
SARS-CoV 3CLpro = SARS-CoV 3CLpro (Severe acute respiratory syndrome coronavirus, UniProt P0C6X7); experiment: biochemical
HCoV-229E 3CLpro = HCoV-229E 3CLpro (Human coronavirus 229E, UniProt P0C6X1); experiment: HCoV-229E 3CLpro inhibition assay (FRET); type: biochemical
HCoV-229E 3CLpro, sequence (P0C6X1 2966-3267): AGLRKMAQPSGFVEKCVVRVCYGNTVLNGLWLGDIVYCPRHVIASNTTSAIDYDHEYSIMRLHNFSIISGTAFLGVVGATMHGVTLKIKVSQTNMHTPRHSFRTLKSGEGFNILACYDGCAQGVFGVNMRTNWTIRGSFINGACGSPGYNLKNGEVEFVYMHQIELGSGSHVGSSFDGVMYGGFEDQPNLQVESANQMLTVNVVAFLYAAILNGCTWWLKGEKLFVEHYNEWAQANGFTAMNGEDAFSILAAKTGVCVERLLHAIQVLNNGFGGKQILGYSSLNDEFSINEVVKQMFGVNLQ

MERS-CoV 3CLpro, sequence (K9N7C7 3248-3553): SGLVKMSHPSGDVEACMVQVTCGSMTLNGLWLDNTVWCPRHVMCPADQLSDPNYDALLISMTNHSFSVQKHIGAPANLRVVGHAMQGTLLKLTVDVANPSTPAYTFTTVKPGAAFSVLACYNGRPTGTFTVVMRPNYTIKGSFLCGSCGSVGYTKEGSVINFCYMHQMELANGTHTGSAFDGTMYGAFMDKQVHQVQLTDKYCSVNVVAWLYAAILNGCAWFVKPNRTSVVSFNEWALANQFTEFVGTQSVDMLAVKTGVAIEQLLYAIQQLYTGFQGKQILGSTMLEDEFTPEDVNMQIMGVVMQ

SMILES	IC50 (MERS-CoV 3CLpro) [nM]	IC50 (SARS-CoV-2 3CLpro) [nM]	IC50 (SARS-CoV 3CLpro) [nM]	IC50 (HCoV-229E 3CLpro) [nM]
CC[C@H](C)[C@H](NC(=O)C(F)F)C(=O)N1C[C@H]2[C@@H]([C@H]1C(=O)NN(C[C@@H]1CCNC1=O)C(=O)[C@H](F)Cl)C2(C)C [Example 51, N-[(1S,2S)-1-[(1R,2S,5S)-2-[[[(2R)-2-chloro-2-fluoro-acetyl]-[[(3S)-2-oxopyrrolidin-3-yl]methyl]amino]carbamoyl]-6,6-dimethyl-3-azabicyclo[3.1.0]hexane-3-carbonyl]-2-methyl-butyl]-2,2-difluoro-acetamide]	59	7	10	21
CC[C@H](C)[C@H](NC(=O)C(C)(C)C)C(=O)N1C[C@H]2[C@@H]([C@H]1C(=O)NN(C[C@@H]1CCNC1=O)C(=O)[C@H](F)Cl)C2(C)C [Example 52, N-[(1S,2S)-1-[(1R,2S,5S)-2-[[[(2R)-2-chloro-2-fluoro-acetyl]-[[(3S)-2-oxopyrrolidin-3-yl]methyl]amino]carbamoyl]-6,6-dimethyl-3-azabicyclo[3.1.0]hexane-3-carbonyl]-2-methyl-butyl]-2,2-dimethyl-propanamide]	57	10	15	22
CC[C@H](C)[C@H](NC(=O)C(C)C)C(=O)N1C[C@H]2[C@@H]([C@H]1C(=O)NN(C[C@@H]1CCNC1=O)C(=O)[C@H](F)Cl)C2(C)C [Example 54, N-[(1S,2S)-1-[(1R,2S,5S)-2-[[[(2R)-2-chloro-2-fluoro-acetyl]-[[(3S)-2-oxopyrrolidin-3-yl]methyl]amino]carbamoyl]-6,6-dimethyl-3-azabicyclo[3.1.0]hexane-3-carbonyl]-2-methyl-butyl]-2-methyl-propanamide]	56	9	12	24
CC[C@H](C)[C@H](NC(=O)C(C)(F)F)C(=O)N1C[C@H]2[C@@H]([C@H]1C(=O)NN(C[C@@H]1CCNC1=O)C(=O)[C@H](F)Cl)C2(C)C [Example 55, N-[(1S,2S)-1-[(1R,2S,5S)-2-[[[(2R)-2-chloro-2-fluoro-acetyl]-[[(3S)-2-oxopyrrolidin-3-yl]methyl]amino]carbamoyl]-6,6-dimethyl-3-azabicyclo[3.1.0]hexane-3-carbonyl]-2-methyl-butyl]-2,2-difluoro-propanamide]	56	8	14	21
CC[C@H](C)[C@H](NC(=O)C1CC1)C(=O)N1C[C@H]2[C@@H]([C@H]1C(=O)NN(C[C@@H]1CCNC1=O)C(=O)[C@H](F)Cl)C2(C)C [Example 57, N-[(1S,2S)-1-[(1R,2S,5S)-2-[[[(2R)-2-chloro-2-fluoro-acetyl]-[[(3S)-2-oxopyrrolidin-3-yl]methyl]amino]carbamoyl]-6,6-dimethyl-3-azabicyclo[3.1.0]hexane-3-carbonyl]-2-methyl-butyl]cyclopropanecarboxamide]	62	11	13	20
CC[C@H](C)[C@H](NC(=O)C1CC(F)(F)C1)C(=O)N1C[C@H]2[C@@H]([C@H]1C(=O)NN(C[C@@H]1CCNC1=O)C(=O)[C@H](F)Cl)C2(C)C [Example 58, N-[(1S,2S)-1-[(1R,2S,5S)-2-[[[(2R)-2-chloro-2-fluoro-acetyl]-[[(3S)-2-oxopyrrolidin-3-yl]methyl]amino]carbamoyl]-6,6-dimethyl-3-azabicyclo[3.1.0]hexane-3-carbonyl]-2-methyl-butyl]-3,3-difluoro-cyclobutanecarboxamide]	73	11	15	26
CC[C@H](C)[C@H](NC(=O)C1(F)CC1)C(=O)N1C[C@H]2[C@@H]([C@H]1C(=O)NN(C[C@@H]1CCNC1=O)C(=O)[C@H](F)Cl)C2(C)C [Example 59, N-[(1S,2S)-1-[(1R,2S,5S)-2-[[[(2R)-2-chloro-2-fluoro-acetyl]-[[(3S)-2-oxopyrrolidin-3-yl]methyl]amino]carbamoyl]-6,6-dimethyl-3-azabicyclo[3.1.0]hexane-3-carbonyl]-2-methyl-butyl]-1-fluoro-cyclopropanecarboxamide]	62	7	17	21
CC[C@H](C)[C@H](NC(=O)C1(C)CC1)C(=O)N1C[C@H]2[C@@H]([C@H]1C(=O)NN(C[C@@H]1CCNC1=O)C(=O)[C@H](F)Cl)C2(C)C [Example 60, N-[(1S,2S)-1-[(1R,2S,5S)-2-[[[(2R)-2-chloro-2-fluoro-acetyl]-[[(3S)-2-oxopyrrolidin-3-yl]methyl]amino]carbamoyl]-6,6-dimethyl-3-azabicyclo[3.1.0]hexane-3-carbonyl]-2-methyl-butyl]-1-methyl-cyclopropanecarboxamide]	47	10	9	19
CC[C@H](C)[C@H](NC(=O)C(Cl)Cl)C(=O)N1C[C@H]2[C@@H]([C@H]1C(=O)NN(C[C@@H]1CCNC1=O)C(=O)[C@H](F)Cl)C2(C)C [Example 61, 2,2-dichloro-N-[(1S,2S)-1-[(1R,2S,5S)-2-[[[(2R)-2-chloro-2-fluoro-acetyl]-[[(3S)-2-oxopyrrolidin-3-yl]methyl]amino]carbamoyl]-6,6-dimethyl-3-azabicyclo[3.1.0]hexane-3-carbonyl]-2-methyl-butyl]acetamide]	121	8	11	30
CC[C@H](C)[C@H](NC(=O)C(F)(F)C(F)(F)F)C(=O)N1C[C@H]2[C@@H]([C@H]1C(=O)NN(C[C@@H]1CCNC1=O)C(=O)[C@H](F)Cl)C2(C)C [Example 62, N-[(1S,2S)-1-[(1R,2S,5S)-2-[[[(2R)-2-chloro-2-fluoro-acetyl]-[[(3S)-2-oxopyrrolidin-3-yl]methyl]amino]carbamoyl]-6,6-dimethyl-3-azabicyclo[3.1.0]hexane-3-carbonyl]-2-methyl-butyl]-2,2,3,3,3-pentafluoro-propanamide]	43	8	10	17
CC[C@H](C)[C@H](NC(=O)C(F)(F)F)C(=O)N1C[C@H]2[C@@H]([C@H]1C(=O)NN(C[C@@H]1CCNC1=O)C(=O)[C@H](F)Cl)C2(C)C [Example 63, N-[(1S,2S)-1-[(1R,2S,5S)-2-[[[(2R)-2-chloro-2-fluoro-acetyl]-[[(3S)-2-oxopyrrolidin-3-yl]methyl]amino]carbamoyl]-6,6-dimethyl-3-azabicyclo[3.1.0]hexane-3-carbonyl]-2-methyl-butyl]-2,2,2-trifluoro-acetamide]	60	9	11	18
CC[C@@H](C)[C@H](NC(=O)C(F)(F)F)C(=O)N1C[C@H]2[C@@H]([C@H]1C(=O)NN(C[C@@H]1CCNC1=O)C(=O)[C@H](F)Cl)C2(C)C [Example 64, N-[(1S,2R)-1-[(1R,2S,5S)-2-[[[(2R)-2-chloro-2-fluoro-acetyl]-[[(3S)-2-oxopyrrolidin-3-yl]methyl]amino]carbamoyl]-6,6-dimethyl-3-azabicyclo[3.1.0]hexane-3-carbonyl]-2-methyl-butyl]-2,2,2-trifluoro-acetamide]	71	10	12	20
CC(C)(C)C[C@H](NC(=O)C(F)(F)F)C(=O)N1C[C@H]2[C@@H]([C@H]1C(=O)NN(C[C@@H]1CCNC1=O)C(=O)[C@H](F)Cl)C2(C)C [Example 66, N-[(1S)-1-[(1R,2S,5S)-2-[[[(2R)-2-chloro-2-fluoro-acetyl]-[[(3S)-2-oxopyrrolidin-3-yl]methyl]amino]carbamoyl]-6,6-dimethyl-3-azabicyclo[3.1.0]hexane-3-carbonyl]-3,3-dimethyl-butyl]-2,2,2-trifluoro-acetamide]	141	10	22	35
CC1(C)[C@@H]2[C@@H](C(=O)NN(C[C@@H]3CCNC3=O)C(=O)[C@H](F)Cl)N(C(=O)[C@H](Cc3ccncc3)NC(=O)C(F)(F)F)C[C@@H]21 [Example 67, N-[(1S)-2-[(1R,2S,5S)-2-[[[(2R)-2-chloro-2-fluoro-acetyl]-[[(3S)-2-oxopyrrolidin-3-yl]methyl]amino]carbamoyl]-6,6-dimethyl-3-azabicyclo[3.1.0]hexan-3-yl]-2-oxo-1-(4-pyridylmethyl)ethyl]-2,2,2-trifluoro-acetamide]	84	10	14	28
CC1([C@H](NC(=O)C(F)(F)F)C(=O)N2C[C@H]3[C@@H]([C@H]2C(=O)NN(C[C@@H]2CCNC2=O)C(=O)[C@H](F)Cl)C3(C)C)CC1 [Example 68, N-[(1S)-2-[(1R,2S,5S)-2-[[[(2R)-2-chloro-2-fluoro-acetyl]-[[(3S)-2-oxopyrrolidin-3-yl]methyl]amino]carbamoyl]-6,6-dimethyl-3-azabicyclo[3.1.0]hexan-3-yl]-1-(1-methylcyclopropyl)-2-oxo-ethyl]-2,2,2-trifluoro-acetamide]	81	18	14	23
CSCC[C@H](NC(=O)C(F)(F)F)C(=O)N1C[C@H]2[C@@H]([C@H]1C(=O)NN(C[C@@H]1CCNC1=O)C(=O)[C@H](F)Cl)C2(C)C [Example 69, N-[(1S)-1-[(1R,2S,5S)-2-[[[(2R)-2-chloro-2-fluoro-acetyl]-[[(3S)-2-oxopyrrolidin-3-yl]methyl]amino]carbamoyl]-6,6-dimethyl-3-azabicyclo[3.1.0]hexane-3-carbonyl]-3-methylsulfanyl-propyl]-2,2,2-trifluoro-acetamide]	249	11	28	53

Reference: patent US20250059171A1 (Hoffmann-La Roche Inc., priority 2021, published 2025)
